Laboratory results published in PMC4605392 (The international journal of biochemistry & cell biology, 2010).
Several values for one entry are separate records, joined by “and”; a condition that tells them apart may be missing. Equal values may be shown once. Where a name gives a salt, the structure may show the parent alone. Read-outs that look alike come from different tables or passages of the source.

Columns and labels:
[1] = molecular target: [^3H]imipramine binding sites at the human α4β2 AChR (Homo sapiens, UniProt P17787+P43681); details: for ΔG^20: calculated from Ki, Eq. (4), 293 K
[2] = ref Nangia et al., 1996; cited from earlier work
human α4β2 AChR = human α4β2 AChR (Homo sapiens, UniProt P17787+P43681); test: cell-based; assay type: cell-based
[3] = therapeutic doses, ref Glotzbach and Preskorn, 1982; cited from earlier work
hα4β2 AChR [4] = molecular target: T1, hα4β2 AChR (Homo sapiens, UniProt P17787+P43681); test: Thermodynamic parameters of imipramine binding; details: for Ea (dissociation process): Arrhenius plot; for ΔH°: van't Hoff plot; for ΔG^20: Eq. (8); for ΔH^+ (enthalpy change of the transition state): Eq. (10)
hα4β2 AChR [5] = molecular target: T1, hα4β2 AChR; assay type: binding; details: for koff: 20 °C; for kon: kon = koff·Ka
hα4β2 AChR [6] = molecular target: T1, hα4β2 AChR; test: Equilibrium binding of [3H]imipramine to HEK293-hα4β2 AChR membranes
[7] = desensitized state, presence of 1 μM (−)-cytisine
[8] = resting state, presence of k-BTx
[9] = Ki, resting state, absence of k-BTx (no ligand)
[10] = resting state, absence of k-BTx (no ligand)
[11] = resting state, absence of k-BTx
[12] = Epibatidine treated column (desensitized state)
[13] = κ-BTx treated column (resting state)

CNC1(C)C2CCC(C2)C1(C)C (racemic) [(±)-Mecamylamine, (±)-mecamylamine hydrochloride]
IC50 ([1]; IC50, desensitized state, presence of 1 μM (−)-cytisine): 209000 ± 34000 nM
IC50 ([1]; IC50, resting state, presence of k-BTx): 135000 ± 19000 nM
inhibition of specific [3H]imipramine binding ([1]; at maximum concentration tested, resting and desensitized states): ~ 70%
nH (Hill coefficient) [1, 7]: 0.58 ± 0.06
nH (Hill coefficient) [1, 8]: 0.53 ± 0.05
pKa [2]: 11.4
IC50 (human α4β2 AChR): 3000 ± 700 nM
nH (Hill coefficient) (human α4β2 AChR): 1.17 ± 0.12

Clc1ccc(C2CC3CCC2N3)cn1 (racemic) [(±)-epibatidine, (±)-Epibatidine]
nH (Hill coefficient) (human α4β2 AChR; activation of hα4β2 AChR, Ca2+ influx in HEK293-hα4β2 cells): 1.03 ± 0.04

CN(C)CCC=C1c2ccccc2CCc2ccccc21 [Amitriptyline, amitriptyline hydrochloride]
concentration in the rat brain [3]: 1000 to 10000 nM
Ki [1, 9]: 1100 ± 100 nM
nH (Hill coefficient) [1, 10]: 0.98 ± 0.11
ΔG^20 [1, 11]: -7.96 ± 0.072 kcal/mol
IC50 (human α4β2 AChR): 2200 ± 600 nM
nH (Hill coefficient) (human α4β2 AChR): 1.50 ± 0.08

CN(C)CCC=C1c2ccccc2COc2ccccc21 [Doxepin, doxepin hydrochloride]
Ki [1]: 2100 ± 200 nM
nH (Hill coefficient) [1, 10]: 0.73 ± 0.05
ΔG^20 [1, 11]: -7.6 ± 0.072 kcal/mol
IC50 (human α4β2 AChR): 6800 ± 1600 nM
nH (Hill coefficient) (human α4β2 AChR): 1.32 ± 0.29

CN(C)CCCN1c2ccccc2CCc2ccccc21 [Imipramine, Imipramine hydrochloride]
Ki ([1]; Ki, desensitized state, presence of 1 μM (−)-cytisine): 970 ± 100 nM
Ki [1, 9]: 1100 ± 100 nM
Ki ([1]; Ki, resting state, presence of 0.1 μM k-BTx): 930 nM
nH (Hill coefficient) [1, 7]: 0.84 ± 0.07
ΔG^20 ([1]; desensitized state, presence of (−)-cytisine): -8.05 ± 0.048 kcal/mol
nH (Hill coefficient) [1, 10]: 0.73 ± 0.04
ΔG^20 [1, 11]: -7.98 ± 0.048 kcal/mol
nH (Hill coefficient) [1, 8]: 0.87 ± 0.07
−TΔS° (hα4β2 AChR [4]; [12]): -5.93 kcal/mol and -5.93 ± 0.382 kcal/mol
Ea (dissociation process) (hα4β2 AChR [4]; [12]): 2.96 ± 0.263 kcal/mol
ΔH° (hα4β2 AChR [4]; [12]): -2.65 kcal/mol and -2.65 ± 0.382 kcal/mol
ΔG^20 (hα4β2 AChR [4]; [12]): -8.58 ± 0.478 kcal/mol
ΔH^+ (enthalpy change of the transition state) (hα4β2 AChR [4]; [12]): 2.37 ± 0.263 kcal/mol
−TΔS° (hα4β2 AChR [4]; [13]): -3.85 ± 0.55 kcal/mol
Ea (dissociation process) (hα4β2 AChR [4]; [13]): 4.54 ± 0.454 kcal/mol
ΔH° (hα4β2 AChR [4]; [13]): -4.76 ± 0.55 kcal/mol
ΔG^20 (hα4β2 AChR [4]; [13]): -8.56 ± 0.693 kcal/mol
ΔH^+ (enthalpy change of the transition state) (hα4β2 AChR [4]; [13]): 3.97 ± 0.454 kcal/mol
IC50 (human α4β2 AChR): 5400 ± 1200 nM
nH (Hill coefficient) (human α4β2 AChR): 1.39 ± 0.13
Ka (hα4β2 AChR [5]; [12]): 2.52 ± 0.08 µM⁻¹
koff (hα4β2 AChR [5]; [12]): 0.076 ± 0.002 s⁻¹
ΔG^20 (hα4β2 AChR [5]; Epibatidine treated column (desensitized state), Eq. (4)): -8.58 ± 0.024 kcal/mol
kon (hα4β2 AChR [5]; [12]): 192000 ± 3000 M⁻¹ s⁻¹
Ka (hα4β2 AChR [5]; [13]): 2.54 ± 0.07 µM⁻¹
koff (hα4β2 AChR [5]; [13]): 0.09 ± 0.001 s⁻¹
kon (hα4β2 AChR [5]; [13]): 229000 ± 8000 M⁻¹ s⁻¹

[^3H]Imipramine
specific activity (Bmax, imipramine binding sites) (hα4β2 AChR [6]; HEK293-hα4β2 membranes, x-intersect of Rosenthal-Scatchard plot): 8.6 ± 0.5 pmol/mg protein
Kd (hα4β2 AChR [6]; resting/no ligand state, Rosenthal-Scatchard plot, 2 h at RT): 830 ± 80 nM
